Assay results from patent US20230159510A1, “NOVEL PRMT5 INHIBITORS” (AMGEN INC., priority 2020, published 2023).
Like-named read-outs stand apart in the source and are kept apart here.

What was measured:
PRMT5/MEP50 = PRMT5/MEP50 (Homo sapiens, UniProt O14744); assay: MTase-Glo methyl transferase assay, Method B (FL-Histone H2A, 1 µM MTA, 1 h pre-incubation); format: biochemical; set-up: purchased Reaction Biology Corp RD-11-292; settings: read-out: PRMT5 MTase Glo Ki (nM, Meth. B)
How it was run: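 PRMT5/MEP50 (4 nM) was pre-incubated 1 h with compound, 5 µM SAM and 1 µM MTA, then started with 2.5 µM FL-Histone H2A in Tris pH 8.0 buffer. After 20 h at room temperature, SAH was detected by MTase-Glo luminescence, and IC50/KI were fitted from dose-response curves.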

HCT116 WT cells = assay: HCT116 proliferation assay, WT cells (CellTiter-Glo, 6 days); format: cell-based; settings: read-out: Prolif_HCT116-WT IC50
How it was run: (§1)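 RPMI 1640/10% FBS; overnight attachment at 37° C, 5% CO2; 8–9-pt 1:3 titration, top 1 or 10 µM; DMSO ctrl; luminescence readout.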

HCT116 MTAP null cells = assay: HCT116 proliferation assay, MTAP null cells (CellTiter-Glo, 6 days); format: cell-based; settings: read-out: Protif_ HCT116-MTAP null IC50
How it was run: as §1

PRMT5/MEP50, sequence (O14744 2-637 limits assumed): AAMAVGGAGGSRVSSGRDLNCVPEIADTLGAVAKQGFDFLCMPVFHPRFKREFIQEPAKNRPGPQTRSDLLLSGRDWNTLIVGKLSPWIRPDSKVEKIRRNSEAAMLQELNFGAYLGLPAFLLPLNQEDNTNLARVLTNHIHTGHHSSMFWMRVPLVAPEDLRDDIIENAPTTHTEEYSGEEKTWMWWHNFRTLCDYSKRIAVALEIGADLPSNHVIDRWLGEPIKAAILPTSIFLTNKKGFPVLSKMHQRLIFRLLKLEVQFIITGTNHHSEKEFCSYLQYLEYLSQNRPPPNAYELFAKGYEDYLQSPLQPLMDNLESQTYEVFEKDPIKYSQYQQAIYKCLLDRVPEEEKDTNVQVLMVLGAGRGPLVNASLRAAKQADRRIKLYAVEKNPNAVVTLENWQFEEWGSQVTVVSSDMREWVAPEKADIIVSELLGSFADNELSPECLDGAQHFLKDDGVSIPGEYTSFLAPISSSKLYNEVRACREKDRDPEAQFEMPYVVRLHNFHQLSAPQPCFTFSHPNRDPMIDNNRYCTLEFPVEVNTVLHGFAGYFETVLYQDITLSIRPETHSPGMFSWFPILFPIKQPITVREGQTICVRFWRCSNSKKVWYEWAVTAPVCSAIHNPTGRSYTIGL
PRMT5/MEP50, sequence (Q9BQA1 2-342 partner limits assumed): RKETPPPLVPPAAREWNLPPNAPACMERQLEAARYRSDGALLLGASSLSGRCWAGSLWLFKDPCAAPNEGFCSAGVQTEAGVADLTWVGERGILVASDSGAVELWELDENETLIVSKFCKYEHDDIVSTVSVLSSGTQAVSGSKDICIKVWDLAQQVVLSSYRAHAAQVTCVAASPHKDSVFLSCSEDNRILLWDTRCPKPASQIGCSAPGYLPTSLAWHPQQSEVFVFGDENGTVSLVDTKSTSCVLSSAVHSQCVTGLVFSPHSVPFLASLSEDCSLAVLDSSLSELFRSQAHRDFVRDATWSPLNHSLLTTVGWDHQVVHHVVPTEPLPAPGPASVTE

Row | Compound | Ki (PRMT5/MEP50) | IC50 (HCT116 WT cells; Homo sapiens, HCT-116, 144 h) | IC50 (HCT116 MTAP null cells; HCT116-MTAP null, 144 h) | IC50 (HCT116 MTAP null cells; 144 h) | IC50 (HCT116 WT cells) | IC50 (HCT116 MTAP null cells)
1 | Cc1cc2cc(C(=O)N(Cc3ccc(C(F)(F)F)cn3)[C@@H]3CCc4ccccc43)ccc2nc1N [Example 601, 2-amino-N-[(1R)-indan-1-yl]-3-methyl-N-[[5-(trifluoromethyl)-2-pyridyl]methyl] quinoline-6-carboxamide] | 1.78 nM | 820 nM | 38 nM | – | – | –
2 | Cc1cc2cc(C(=O)N(Cc3ccc(C(F)(F)F)cn3)Cc3ccc4cc[nH]c4n3)ccc2nc1N [Example 615, N-((1H-pyrrolo [2,3-b]pyridin-6-yl)methyl)-2-amino-3-methyl-N-((5-(trifluoromethyl)pyridin-2-yl)methyl)quinoline-6-carboxamide] | 1.62 nM | 3500 nM | 276 nM | – | – | –
3 | Cc1cc2cc(C(=O)N(Cc3ccc(C(F)(F)F)cn3)C3CCc4nc(N)ncc4C3)ccc2nc1N (stereo not drawn) [Example 668, 2-amino-N-(2-amino-5,6,7,8-tetrahydroquinazolin-6-yl)-3-methyl-N-[ [5-(trifluoromethyl)-2-pyridyl]methyl] quinoline-6-carboxamide] | 4.69 nM | > 1000 nM | 270 nM | – | – | –
4 | Cc1cc2cc(C(=O)N(Cc3ccc(C(F)(F)F)cn3)Cc3c(C)c4ccccc4n3C)ccc2nc1N [Example 578, 2-amino-N-((1,3-dimethyl-1H-indol-2-yl)methyl)-3-methyl-N-((5-(trifluoromethyl)pyridin-2-yl)methyl)quinoline-6-carboxamide] | 15.4 nM | 5090 nM | 859 nM | – | – | –
5 | Cc1cc2cc(C(=O)N(Cc3ccc(C(F)(F)F)cn3)C3CCc4sc(Cl)cc43)ccc2nc1N (stereo not drawn) [Example 607, 2-amino-N-(2-chloro-5,6-dihydro-4H-cyclopenta[b]thiophen-4-yl)-3-methyl-N-((5-(trifluoromethyl)pyridin-2-yl)methyl)quinoline-6-carboxamide] | 7.26 nM | > 3200 nM | 370 nM | – | – | –
6 | Cc1cc2cc(C(=O)N(Cc3ccc(C(F)(F)F)cn3)Cc3c[nH]c4ccccc34)ccc2nc1N [Example 567, 2-amino-N-(1H-indol-3-ylmethyl)-3-methyl-N-[[5-(trifluoromethyl)-2-pyridyl]methyl] quinoline-6-carboxamide] | 4.44 nM | > 1000 nM | 103 nM | – | – | –
7 | Cc1cc2cc(C(=O)N(Cc3ccc4cn[nH]c4c3)Cc3ccc(C(F)(F)F)cn3)ccc2nc1N [Example 619, N-((1H-indazol-6-yl)methyl)-2-amino-3-methyl-N-((5-(trifluoromethyl)pyridin-2-yl)methyl)quinoline-6-carboxamide] | 1.87 nM | 1300 nM | 128 nM | – | – | –
8 | Cc1csc(CN(Cc2ccc(C(F)(F)F)cn2)C(=O)c2ccc3nc(N)c(C)cc3c2)n1 [Example 708, 2-amino-3-methyl-N-[(4-methylthiazol-2-yl)methyl]-N-[[5-(trifluoromethyl)-2-pyridyl]methyl]quinoline-6-carboxamide] | 2.79 nM | > 1000 nM | 155 nM | – | – | –
9 | Cc1cc2cc(C(=O)N(Cc3ccc(C(F)(F)F)cn3)CC(C)C(F)(F)F)ccc2nc1N (stereo not drawn) [Example 591, 2-amino-3-methyl-N-(3,3,3-trifluoro-2-methylpropyl)-N-((5-(trifluoromethyl)pyridin-2-yl)methyl)quinoline-6-carboxamide] | 16.5 nM | > 1000 nM | – | 456 nM | – | –
10 | Cc1cc2cc(C(=O)N(Cc3cncc(F)c3)Cc3ccc(C(F)(F)F)cn3)ccc2nc1N [Example 597, 2-amino-N-((5-fluoropyridin-3-yl)methyl)-3-methyl-N-((5-(trifluoromethyl)pyridin-2-yl)methyl)quinoline-6-carboxamide] | 6.35 nM | > 1000 nM | 300 nM | – | – | –
11 | Cc1cc(N)nc2ccc(C(=O)N(Cc3ccc(C(F)(F)F)cn3)Cc3ccn(C)n3)cc12 [Example 709, 2-amino-4-methyl-N-[(1-methylpyrazol-3-yl)methyl]-N-[[5-(trifluoromethyl)-2-pyridyl]methyl] quinoline-6-carboxamide] | 2.97 nM | 1430 nM | 334 nM | – | – | –
12 | Cc1cc2c(nc1N)CCC(C(=O)N(Cc1ccc(C(F)(F)F)cn1)Cc1ccnc3[nH]ccc13)C2 (stereo not drawn) [Example 581, N-((1H-pyrrolo[2,3-b]pyridin-4-yl)methyl)-2-amino-3-methyl-N-((5-(trifluoromethyl)pyridin-2-yl)methyl)-5,6,7,8-tetrahydroquinoline-6-carboxamide] | 16 nM | > 1000 nM | 840 nM | – | – | –
13 | Cc1cc2cc(C(=O)N(Cc3ccc4[nH]ncc4c3)Cc3ccc(C(F)(F)F)cn3)ccc2nc1N [Example 618, N-((1H-indazol-5-yl)methyl)-2-amino-3-methyl-N-((5-(trifluoromethyl)pyridin-2-yl)methyl)quinoline-6-carboxamide] | 1.59 nM | – | – | – | 1400 nM | 55 nM
14 | Cc1cc2cc(C(=O)N(Cc3ccc(C(F)(F)F)cn3)C3CCC(C)c4ccccc43)ccc2nc1N (stereo not drawn) [Example 602, 2-amino-3-methyl-N-(4-methyl-1,2,3,4-tetrahydronaphthalen-1-yl)-N-((5-(trifluoromethyl)pyridin-2-yl)methyl)quinoline-6-carboxamide] | 7.26 nM | > 1000 nM | 85 nM | – | – | –
15 | Cc1cc2cc(C(=O)N(Cc3ccc4[nH]c(=O)oc4c3)Cc3ccc(C(F)(F)F)cn3)ccc2nc1N [Example 620, 2-amino-3-methyl-N-((2-oxo-2,3-dihydrobenzo [d]oxazol-6-yl)methyl)-N-((5-(trifluoromethyl)pyridin-2-yl)methyl)quinoline-6-carboxamide] | 1.83 nM | > 1000 nM | 100 nM | – | – | –
16 | CO[C@@H]1COCC[C@H]1N(Cc1ccc(C(F)(F)F)cn1)C(=O)c1ccc2nc(N)c(C)cc2c1 [Example 704, 2-amino-N-[(3 S,4R)-3-methoxytetrahydropyran-4-yl]-3-methyl-N-[[5-(trifluoromethyl)-2-pyridyl]methyl] quinoline-6-carboxamide] | 25.1 nM | – | 80 nM | – | > 1000 nM | –
17 | Cc1cc2cc(C(=O)N(Cc3ccn4ccnc4c3)Cc3ccc(C(F)(F)F)cn3)ccc2nc1N [Example 621, 2-amino-N-(imidazo[1,2-a]pyridin-7-ylmethyl)-3-methyl-N-((5-(trifluoromethyl)pyridin-2-yl)methyl)quinoline-6-carboxamide] | 3.97 nM | > 1000 nM | 133 nM | – | – | –
18 | 2-amino-3-methyl-N-[(4-methylthiazol-5-yl)methyl] -N-[[5-(trifluoromethyl)-2-pyridyl]methyl] quinoline-6-carboxamide [Example 565] | 2.77 nM | – | – | – | 3490 nM | 94 nM
19 | Cc1cc2cc(C(=O)N(Cc3ccc(C(F)(F)F)cn3)Cc3cocn3)ccc2nc1N [Example 580, 2-amino-3-methyl-N-(oxazol-4-ylmethyl)-N-[[5-(trifluoromethyl)-2-pyridyl]methyl] quinoline-6-carboxamide] | 2.24 nM | 5600 nM | 110 nM | – | – | –
20 | Cc1cc2cc(C(=O)N(Cc3ccc(C(F)(F)F)cn3)C3CCCC3C#N)c(F)cc2nc1N (stereo not drawn) [Example 702, 2-amino-N-(2-cyanocyclopentyl)-7-fluoro-3-methyl-N-[[5-(trifluoromethyl)-2-pyridyl]methyl] quinoline-6-carboxamide] | 5.12 nM | 560 nM | 46 nM | – | – | –
21 | Cc1cc2cc(C(=O)N(Cc3ccc4[nH]c(N)nc4c3)Cc3ccc(C(F)(F)F)cn3)ccc2nc1N [Example 616, 2-amino-N-((2-amino-1H-benzo [d]imidazol-5-yl)methyl)-3-methyl-N-((5-(trifluoromethyl)pyridin-2-yl)methyl)quinoline-6-carboxamide] | 3.29 nM | > 1000 nM | 320 nM | – | – | –
22 | Cc1cc2cc(C(=O)N(CCc3ncon3)Cc3ccc(C(F)(F)F)cn3)ccc2nc1N [Example 576, N-(2-(1,2,4-oxadiazol-3-yl)ethyl)-2-amino-3-methyl-N-((5-(trifluoromethyl)pyridin-2-yl)methyl)quinoline-6-carboxamide] | 5.89 nM | > 10000 nM | 749 nM | – | – | –
23 | Cc1cc2cc(C(=O)N(Cc3ccc(CO)c(F)c3)Cc3ccc(C(F)(F)F)cn3)ccc2nc1N [Example 566, 2-amino-N-[[3-fluoro-4-(hydroxymethyl)phenyl]methyl]-3-methyl-N-[[5-(trifluoromethyl)-2-pyridyl]methyl] quinoline-6-carboxamide] | 4.58 nM | > 10000 nM | 277 nM | – | – | –
24 | Cc1cc2cc(C(=O)N(Cc3ccc(C(F)(F)F)cn3)C3COc4c3ccc(C)c4C)ccc2nc1N (stereo not drawn) [Example 610, 2-amino-N-(6,7-dimethyl-2,3-dihydrobenzofuran-3-yl)-3-methyl-N-((5-(trifluoromethyl)pyridin-2-yl)methyl)quinoline-6-carboxamide] | 9.6 nM | > 1000 nM | 540 nM | – | – | –
25 | Cc1cc2cc(C(=O)N(Cc3ccc(C(F)(F)F)cn3)CC3CCOCC3C)ccc2nc1N (stereo not drawn) [Example 596, 2-amino-3-methyl-N-((3-methyltetrahydro-2H-pyran-4-yl)methyl)-N-((5-(trifluoromethyl)pyridin-2-yl)methyl)quinoline-6-carboxamide] | 17.1 nM | > 10000 nM | 352 nM | – | – | –
